Measurements published in ChEMBL document CHEMBL4431299 (Medchemcomm, 2016).
Calls of active or inactive are those of the source. No cut-off for these calls is given here.

What follows are compounds tested against Mitogen-activated protein kinase 14 (Mus musculus) (UniProt P47811) (assay: (§1) Inhibition of kinase tracer 199 binding to mouse inactive p38alpha (2 to 349 residues) expressed in Escherichia coli by microscale thermophoresis assay).
Mitogen-activated protein kinase 14 (Mus musculus), sequence (P47811 whole entry, the tested form may be a part): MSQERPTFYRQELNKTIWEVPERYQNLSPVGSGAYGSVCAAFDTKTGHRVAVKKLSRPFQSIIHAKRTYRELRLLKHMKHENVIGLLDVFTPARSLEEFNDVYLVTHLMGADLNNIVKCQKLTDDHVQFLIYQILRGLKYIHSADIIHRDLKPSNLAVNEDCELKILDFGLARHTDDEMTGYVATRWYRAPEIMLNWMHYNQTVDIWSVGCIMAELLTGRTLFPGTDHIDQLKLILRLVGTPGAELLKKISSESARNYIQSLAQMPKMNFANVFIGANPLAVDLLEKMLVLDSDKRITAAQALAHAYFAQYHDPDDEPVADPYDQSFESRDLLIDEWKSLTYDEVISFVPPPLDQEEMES

For `COc1ccc(-n2nc(C(C)(C)C)cc2NC(=O)Nc2ccc(Cl)cc2)cc1`, which inhibition is on record?
Its inhibition is “Active”.

For `CC(C)(C)c1cc(NC(=O)Nc2ccc(Cl)cc2)n(-c2ccc(F)cc2)n1`, which inhibition is on record?
The inhibition was “Active”.

`CC(C)(C)c1cc(NC(=O)Nc2ccc(Cl)cc2)n(-c2ccccc2F)n1` was tested. Which inhibition did it give?
Its inhibition is “Active”.

`COc1ccccc1-n1nc(C(C)(C)C)cc1NC(=O)Nc1ccc(Cl)cc1` was tested. Which inhibition did it give?
The inhibition was “inactive”.

Which inhibition does the source give for `CC(C)(C)c1cc(NC(=O)Nc2ccc(Cl)cc2)n(-c2ccccc2Cl)n1` here?
The inhibition was “inactive”.

How did the inhibition turn out when `CC(C)(C)c1cc(NC(=O)Nc2ccc(Cl)cc2)n(-c2ccc(Cl)cc2)n1` was run?
The inhibition was “Active”.

These compounds were tested against Mitogen-activated protein kinase 14 (Mus musculus, UniProt P47811) (assay: as §1).
Mitogen-activated protein kinase 14, sequence (P47811 whole entry): as the sequence (P47811 whole entry, the tested form may be a part) above

Which Ki does the source give for `Cc1ccc(-n2nc(C(C)(C)C)cc2NC(=O)Nc2ccc(Cl)cc2)cc1` here?
The Ki was 30 nM.

For `Cc1cccc(-n2nc(C(C)(C)C)cc2NC(=O)Nc2ccc(Cl)cc2)c1`, which Ki is on record?
Its Ki is 20 nM.

How did the Ki turn out when `CC(C)(C)c1cc(NC(=O)Nc2ccc(Cl)cc2)n(-c2ccccc2)n1` was run?
Its Ki is 100 nM.

`Cc1ccccc1-n1nc(C(C)(C)C)cc1NC(=O)Nc1ccc(Cl)cc1` was tested. Which Ki did it give?
Its Ki is 730 nM.
